Here are results for 6 compounds from paper PMC4713029 (Nuclear medicine and biology, 2011).

Series [1] concerns s.c. pheochromocytoma tumors (MPC cells). In words: [^18F]-DA and [^18F]-DOPA PET in mice with subcutaneous pheochromocytoma. To be noted: for SUVmax (mean±S.E.M.), s.c. tumors <5 mm / SUVmax (mean±S.E.M.), s.c. tumors >5 mm / SUVmax in tumor sample s.c. 1 / SUVmax in tumor sample s.c. 2 / SUVmax in tumor sample s.c. 3 / TLR for s.c. tumors (range over tumor size) / TLR, s.c. tumors <5 mm / TLR, s.c. tumors >5 mm / TBR, s.c. tumors <5 mm / TBR, s.c. tumors >5 mm: 60–70 min after administration; for TBR, s.c. tumors <5 mm / TBR, s.c. tumors >5 mm: muscle as background; for number of subcutaneous tumors localized by PET: necropsy 4 in 4 mice.

Series [2] deals with organ metastatic pheochromocytoma lesions (MPC cells). Briefly: [^18F]-DA and [^18F]-DOPA PET in mice with organ metastatic pheochromocytoma. To be noted: for TBR (tumor-to-background ratio), liver tumors <3 mm / TBR, adrenal tumors >3 mm / TBR, liver tumors >3 mm / TBR, ovary tumors >3 mm: muscle as background; for SUVmax in tumor sample Adrenal 1: sample also immunostained; for SUVmax in liver lesions, the first week / SUVmax in liver lesions, the second week: liver lesions imaged once a week for two weeks; for optimal time for lesion detection after administration: liver lesions vs liver background, dynamic PET up to 70 min; for number of ovary tumors localized by PET: necropsy 4 in 4 mice; for number of lung tumors localized by PET: necropsy >20 in 2 mice.

For series [3] the following is noted: cited from earlier work.
Series [4] deals with pheochromocytoma animal model with extensive liver and other organ lesions. It is filed as in vivo. To be noted: preliminary experiments.
[5] abbreviates: Fig. 3G, 60–70 min after injection.

Turning to `NCCc1cc(O)c(O)cc1[18F]` [[^18F]-DA, [^18F]-6-fluorodopamine], in series [1], the “SUVmax (mean±S.E.M.), s.c. tumors <5 mm” value amounted to 0.31±0.02; the “SUVmax (mean±S.E.M.), s.c. tumors >5 mm” value is 0.35±0.12; the “SUVmax in tumor sample s.c. 1” value is “— (A dash sign “—” presents SUVmax values less than 0.3 for both [^18F]-DA and [^18F]-DOPA)”; the “SUVmax in tumor sample s.c. 2” value is “— (A dash sign “—” presents SUVmax values less than 0.3 for both [^18F]-DA and [^18F]-DOPA)”. For the same compound, in series [1], the “SUVmax in tumor sample s.c. 3” value is “— (A dash sign “—” presents SUVmax values less than 0.3 for both [^18F]-DA and [^18F]-DOPA)”; the “TLR for s.c. tumors (range over tumor size)” value is given as 0.22-0.27; the “TLR, s.c. tumors <5 mm” value was 0.22; the “TLR, s.c. tumors >5 mm” value worked out at 0.27. For the same compound, in series [1], the “TBR, s.c. tumors <5 mm” value was found to be 1.72 and the “TBR, s.c. tumors >5 mm” value came to 1.94. In addition, in series [1] (setting [5]), the “SUVmax in large s.c. tumor, representative animal” value is on record as 0.35 and the “SUVmax in muscle (nontarget tissue), representative animal” value was 0.31. Moreover, the “number of subcutaneous tumors localized by PET” value in series [1] (four mice) worked out at 0. Also, in series [2] (60–70 min after administration), the “SUVmax (mean±S.E.M.), adrenal tumors >3 mm” value turned out to be 2.18±0.39; the “SUVmax (mean±S.E.M.), kidney” value turned out to be 2.41±0.45; the “SUVmax (mean±S.E.M.), liver” value was found to be 0.88±0.11; the “SUVmax (mean±S.E.M.), liver tumors <3 mm” value was 1.61±0.17. In addition, in series [2] (60–70 min after administration), the “SUVmax (mean±S.E.M.), liver tumors >3 mm” value was 2.49±0.08; the “SUVmax (mean±S.E.M.), muscle (background)” value is reported as 0.31±0.02; the “SUVmax (mean±S.E.M.), ovary tumors >3 mm” value is on record as 1.99±0.27; the “SUVmax in tumor sample Adrenal 2” value turned out to be 1.98. In series [2] (60–70 min after administration), the “SUVmax in tumor sample Bone” value is “— (A dash sign “—” presents SUVmax values less than 0.3 for both [^18F]-DA and [^18F]-DOPA)”; the “SUVmax in tumor sample Liver 1” value was determined as 2.46; the “SUVmax in tumor sample Liver 2” value came to 1.89; the “SUVmax in tumor sample Liver 3” value was “— (A dash sign “—” presents SUVmax values less than 0.3 for both [^18F]-DA and [^18F]-DOPA)”. Moreover, in series [2] (60–70 min after administration), the “SUVmax in tumor sample Lung” value is “— (A dash sign “—” presents SUVmax values less than 0.3 for both [^18F]-DA and [^18F]-DOPA)”; the “SUVmax in tumor sample Ovary” value worked out at 1.92; the “TLR (tumor-to-liver ratio), liver tumors <3 mm” value amounted to 1.83; the “TLR for liver lesions (range depending on tumor size)” value is 1.83–2.83. Moreover, in series [2] (60–70 min after administration), the “TLR, adrenal tumors >3 mm” value stood at 2.47; the “TLR, liver tumors >3 mm” value is given as 2.83; the “TLR, ovary tumors >3 mm” value is given as 2.26; the “TBR (tumor-to-background ratio), liver tumors <3 mm” value is reported as 5.19. Further, in series [2] (60–70 min after administration), the “TBR, adrenal tumors >3 mm” value is 7.03; the “TBR, liver tumors >3 mm” value worked out at 8.03; the “TBR, ovary tumors >3 mm” value was found to be 6.41; the “SUVmax in tumor sample Adrenal 1” value amounted to 2.15. Further, in series [2] (dynamic PET 10–70 min, Fig. 1), the “SUVmax time–activity course, liver lesions smaller than 3 mm” value is “remained relatively stable” and the “SUVmax time–activity course, liver tumors larger than 3 mm” value is recorded as “decrease in SUVmax over time”. Also, in series [2], the “SUVmax in liver lesions, the first week” value is reported as 1.85±0.199; the “SUVmax in liver lesions, the second week” value was found to be 1.16±0.07; the “optimal time for lesion detection after administration” value was in the range of 60 to 70 min. Besides, in series [2] (week 5, nine mice), the “number of mice with adrenal tumors localized by PET” value came to 4 mice, the “number of mice with liver tumors localized by PET” value was determined as 8 mice, the “number of mice with ovary tumors localized by PET” value was 4 in 4 mice and the “number of ovary tumors localized by PET” value was 4 in 4 mice. Further, the “number of lung tumors localized by PET” value in series [2] (week 5, nine mice) was 0.

As for `NCCc1ccc(O)c(O)c1` [dopamine], the half-life in circulation result in series [3] is “about 1 minute”.

Turning to `CNCCCN1c2ccccc2CCc2ccccc21` [desipramine], the “side effects on administration in tumor-bearing animals” value (from here on “side effects on administration”) in series [4] is “side effects were in most cases fatal”.

On to `COc1cc2c(cc1OC)C1CC(=O)C(CC(C)C)CN1CC2` (stereo not shown) [tetrabenazine], for which the “side effects on administration” value in series [4] is “side effects were in most cases fatal”.

Consider `N[C@@H](Cc1cc(O)c(O)cc1[18F])C(=O)O` [[^18F]-DOPA, [^18F]-L-6-fluoro-3,4-dihydroxyphenylalanine], for which, in series [1], the “SUVmax (mean±S.E.M.), s.c. tumors <5 mm” value was 2.88±0.88; the “SUVmax (mean±S.E.M.), s.c. tumors >5 mm” value was 2.0±0.06; the “SUVmax in tumor sample s.c. 1” value is listed as 1.88; the “SUVmax in tumor sample s.c. 2” value is recorded as 2.25. In series [1], the “SUVmax in tumor sample s.c. 3” value was 2.09; the “TLR for s.c. tumors (range over tumor size)” value is 1.56-2.24; the “TLR, s.c. tumors <5 mm” value was 2.24; the “TLR, s.c. tumors >5 mm” value is reported as 1.56. Also, in series [1], the “TBR, s.c. tumors <5 mm” value amounted to 7.2 and the “TBR, s.c. tumors >5 mm” value stood at 5.0. For the same compound, the “SUVmax in large s.c. tumor, representative animal” value in series [1] (setting [5]) came to 2. Also, in series [1] (four mice), the “number of mice with subcutaneous tumors localized by PET” value is on record as 4 in 4 mice and the “number of subcutaneous tumors localized by PET” value was 4 in 4 mice. In series [2] (60–70 min after administration), the “SUVmax (mean±S.E.M.), adrenal tumors >3 mm” value is 6.61±0.64; the “SUVmax (mean±S.E.M.), kidney” value was determined as 1.73±0.34; the “SUVmax (mean±S.E.M.), liver” value was 1.33±0.14; the “SUVmax (mean±S.E.M.), liver tumors <3 mm” value came out at 3.01±0.27. For the same compound, in series [2] (60–70 min after administration), the “SUVmax (mean±S.E.M.), liver tumors >3 mm” value is recorded as 3.61±0.19; the “SUVmax (mean±S.E.M.), muscle (background)” value was determined as 0.29±0.02; the “SUVmax (mean±S.E.M.), ovary tumors >3 mm” value was 2.59±0.32; the “SUVmax in tumor sample Adrenal 2” value came to 5.79. In addition, in series [2] (60–70 min after administration), the “SUVmax in tumor sample Bone” value was 1.42, the “SUVmax in tumor sample Liver 1” value is on record as 3.31, the “SUVmax in tumor sample Liver 2” value was determined as 2.79 and the “SUVmax in tumor sample Liver 3” value is on record as 3.24. In addition, in series [2] (60–70 min after administration), the “SUVmax in tumor sample Lung” value is 1.15; the “SUVmax in tumor sample Ovary” value is 3.05; the “TLR (tumor-to-liver ratio), liver tumors <3 mm” value is on record as 2.26; the “TLR for liver lesions (range depending on tumor size)” value is given as 2.26–2.71. In addition, in series [2] (60–70 min after administration), the “TLR, liver tumors >3 mm” value turned out to be 2.71; the “TBR (tumor-to-background ratio), liver tumors <3 mm” value stood at 10.38; the “TBR, adrenal tumors >3 mm” value is 22.79; the “TBR, liver tumors >3 mm” value worked out at 12.45. Besides, in series [2] (60–70 min after administration), the “TBR, ovary tumors >3 mm” value turned out to be 8.93 and the “SUVmax in tumor sample Adrenal 1” value turned out to be 6.46. Further, the “SUVmax time–activity course, liver lesions regardless of tumor size” value in series [2] (dynamic PET 10–70 min, Fig. 1) is reported as “remained stable over time”. In series [2], the “SUVmax in liver lesions, the first week” value is on record as 3.023±0.22; the “SUVmax in liver lesions, the second week” value came to 2.88±0.12; the “optimal time for lesion detection after administration” value lay in the range of 60 to 70 min. In series [2] (week 5, nine mice), the “number of mice with adrenal tumors localized by PET” value turned out to be 5 mice, the “number of mice with liver tumors localized by PET” value turned out to be 9 mice, the “number of mice with lung tumors localized by PET” value was 1 in 1 mouse and the “number of mice with ovary tumors localized by PET” value came to 4 in 4 mice. In addition, in series [2] (week 5, nine mice), the “number of ovary tumors localized by PET” value stood at 4 in 4 mice and the “number of lung tumors localized by PET” value is given as 1 in 1 mouse. In series [2] (week 5, nine mice, necropsy 18 in 9 mice), the “number of adrenal tumors localized by PET” value is 9.

Consider `COC(=O)[C@H]1[C@H]2C[C@@H]3c4[nH]c5cc(OC)ccc5c4CCN3C[C@H]2C[C@@H](OC(=O)c2cc(OC)c(OC)c(OC)c2)[C@@H]1OC` [reserpine], for which the “side effects on administration” value in series [4] was “side effects were in most cases fatal”.
